In series [1] the test system is T. b. brucei 2T1. The experiment in a line: Drug sensitivity assay (resazurin). The series is classed as cell-based. To be noted: Trypanosoma brucei, 48 h drug + 24 h resazurin, read-out: EC50 control 2T1 AVG. How it is done:
The tbaqp2/tbaqp3 null cells ([Baker et al., 2012]) and tbaqp1-2-3 null cells ([Jeacock et al., 2017]) (both obtained from David Horn, University of Dundee, UK) are derived from the 2T1 strain of T. b. brucei ([Alsford and Horn, 2008]). The CRK12 RNAi cell line^28 was obtained from Dr Tansy Hammarton (University of Glasgow, UK) and is also based on the 2T1 cell line; RNAi expression was induced with 1 µg/ml tetracycline in the medium. All experiments were performed with bloodstream form trypanosomes grown in vitro in HMI-11 medium as described ([Wallace et al., 2002]) at 37°C in a 5% CO2 atmosphere. Cultures were routinely maintained in 10 ml of this medium, being seeded at 5 × 10^4 cells/ml and passed to fresh medium at reaching approximately 3 × 10^6 cells/ml after 48 hr. For transport experiments 150 or 200 ml of culture was seeded at the same density in large flasks and incubated until the culture reached late-log phase.
Drug sensitivity assays for T. b. brucei bloodstream forms used the cell viability dye resazurin (Sigma) and were performed exactly as described ([Wallace et al., 2002]; [Bridges et al., 2007]) in 96-well plates with doubling dilutions of test compound, starting at 100 µM, over 2 rows of the plate (23 dilutions plus no-drug control). Incubation time with test compound was 48 hr (37°C/5% CO2), followed by an additional 24 hr in the presence of the dye.
In general terms: Resazurin is reduced to fluorescent resorufin, in cell work by metabolically active cells.

In series [2] the target is TbAQP2/HAPT1 (Trypanosoma brucei brucei, UniProt Q6ZXT3). The experiment in a line: cell-based. The series is classed as cell-based.
The test system of series [3] is tbaqp2 null (AQP2-KO). As to the kind of experiment: Drug sensitivity assay (resazurin). It is filed as cell-based. To be noted: Trypanosoma brucei, read-out: EC50 AQP2-KO AVG, AQP2-KO / tbaqp2 null; 48 h drug + 24 h resazurin.
Series [4] relates to T. b. brucei s427 WT (bloodstream forms). The series is classed as cell-based, Trypanosoma brucei brucei.
Series [5] relates to s427WT bloodstream forms. It is filed as cell-based, Trypanosoma brucei brucei.
For series [6], the system named is CRK12 RNAi cells. The experiment in a line: [3H]-suramin uptake after CRK12 RNAi induction (endocytosis defect). The series is classed as cell-based, Trypanosoma brucei.

The results in this text go back to publication PMC7473772 (eLife, 2020).

Structures are written as SMILES. Values joined by “and” are separate entries in the source; they are usually repeats but may differ in a detail not shown here. Equal entries are not always repeated. Structures can show the parent of a compound that is named as a salt. Where two headings read alike, the source gives them in different places.

In general, melting point refers to the temperature, or range, at which the solid turns liquid. What is called Ki is the equilibrium dissociation constant of an inhibitor or competing ligand from its target. Low readings indicate higher affinity, high ones lower affinity.

Chain of TbAQP2/HAPT1 (Q6ZXT3 whole entry): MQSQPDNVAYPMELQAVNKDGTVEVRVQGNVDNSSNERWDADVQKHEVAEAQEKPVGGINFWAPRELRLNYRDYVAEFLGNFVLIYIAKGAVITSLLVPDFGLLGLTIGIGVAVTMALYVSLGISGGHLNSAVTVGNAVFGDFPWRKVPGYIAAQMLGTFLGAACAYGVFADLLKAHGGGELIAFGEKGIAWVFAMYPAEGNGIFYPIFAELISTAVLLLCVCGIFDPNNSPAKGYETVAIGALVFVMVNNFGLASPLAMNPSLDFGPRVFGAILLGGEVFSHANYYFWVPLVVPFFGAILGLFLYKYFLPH

Consider `COc1ccc(-c2ccc(-c3ccc(C(=N)N)cc3)o2)cc1` (as salt: hydrochloride) [DB607, 4-(5-(4-methoxyphenyl)furan-2-yl) benzimidamide hydrochloride], for which the melting point is 250 to 252 °C (dec.).
Same read-out and setting: as for `Cn1c(-c2ccc(-c3ccc(C(=N)N)cc3)o2)nc2ccccc21` (as salt: hydrochloride) [DB960, 4-(5-(1-methyl-1H-benzo[d]imidazol-2-yl)furan-2-yl) benzimidamide dihydrochloride], the figure is > 290 °C (dec.).
With `Cl.N=C(N)c1ccc(OCCCCOc2ccccc2)cc1.O` (hydrate or solvate) [CHI/1/69/1, 4-(4-Phenoxybutoxy)benzimidamide hydrochloride hydrate], the melting point lay in the range of 134 to 135 °C.
On the same count and under the same terms, as for `Cl.Cl.N=C(N)c1ccc(OCCOc2ccc(C(=N)N)cc2)cc1.O.O` (hydrate or solvate) [Ethamidine, 4,4'-(ethane-1,2-diylbis(oxy))dibenzimidamide dihydrochloride dihydrate], the figure is 333 °C.
Turning to `Cc1ccc(OCCCCCOc2ccc(C(=N)N)cc2)cc1` [CHI/1/72/1, 4-(5-(p-tolyloxy)pentyyloxy)benzimidamide hydrochloride hydrate], the EC50 in series [1] is 3230 nM; in series [3], 2640 nM. The ΔG0 in series [2] is -7.62 kcal/mol. Besides, in series [2], the “δ(ΔG^0) PMD” value amounted to 2.56 kcal/mol. For the same molecule, the Ki worked out at 2600 nM in series [2] (HAPT Ki AVG) and 2620 nM in series [2] (HAPT Ki, AVG).
Take `N=C(N)c1ccc(-c2ccc(-c3ccc(C(=N)N)cc3)o2)cc1` [DB75]: the EC50 worked out at 50 nM in series [1] and 20 nM in series [3]. In series [2], this molecule gave a ΔG0 of -6.02 kcal/mol. Besides, in series [2], the “δ(ΔG^0) PMD” value was determined as 4.13 kcal/mol. Moreover, the inhibition constant Ki came to 38300 nM in series [2] (HAPT Ki AVG) and 38200 ± 10200 nM in series [2] (Ki).
For `Cl.Cl.c1cc(-c2ccc(-c3ccc(CCC4=NCCN4)cc3)s2)ccc1CCC1=NCCN1` [DB1064, 2,5-bis(4-(2-(4,5-dihydro-1H-imidazol-2-yl)ethyl)phenyl) thiophene dihydrochloride], the melting point was > 225 °C (dec.). Also, in series [2], the ΔG0 was -7.53 kcal/mol and the “δ(ΔG^0) PMD” value amounted to 2.63 kcal/mol. The molecule also registered a Ki in series [2] (Ki) of 3000 ± 820 nM.
As for `N=C(N)c1ccc(-c2ccc(-c3ccc(C(=N)N)cc3)[se]2)cc1` [DB1213], the EC50 in series [1] is 142 nM. In addition, in series [2], the ΔG0 is -8.39 kcal/mol and the “δ(ΔG^0) PMD” value is 1.79 kcal/mol. This molecule also gave a Ki in series [2] (Ki) of 720 ± 170 nM. For the same molecule, the EC50 in series [3] was 78 nM.
In series [4], `CCN1C(=O)C=CC1=O` [NEM, N-ethylmaleimide] registered a PMF of -39.3. Moreover, the pentamidine uptake in series [5] (NEM 1000, AVG) is 60.1 percentage of the uninhibited control; in series [5] (NEM 1000, single repeats), 56.77 percentage of the uninhibited control and 56.26 percentage of the uninhibited control and 67.13 percentage of the uninhibited control.
Regarding `CNC(=N)c1ccc(OCCCCCOc2ccc(C(=N)NC)cc2)cc1` [RT-30], the EC50 in series [1] is 590 nM. In addition, in series [2], the ΔG0 is -8.89 kcal/mol and the “δ(ΔG^0) PMD” value was determined as 1.27 kcal/mol. Moreover, the Ki in series [2] (Ki) turned out to be 300 ± 70 nM. Also, the EC50 in series [3] is 800 nM.
Taken in the same sequence, the figures for `c1cc(C2=NCCN2)ccc1OCCCCCOc1ccc(C2=NCCN2)cc1` [RT-32] were 400 nM, -8.72 kcal/mol, 1.43 kcal/mol, 400 ± 80 nM and 500 nM.
`N=C(N)c1ccc(OCCCCCOc2ccc(N)cc2)cc1` [RT-36]: the EC50 in series [1] came out at 25700 nM. Moreover, in series [2], the ΔG0 was -8.68 kcal/mol and the “δ(ΔG^0) PMD” value turned out to be 1.48 kcal/mol. The same molecule had a Ki in series [2] (Ki) of 430 ± 70 nM. In series [3], the EC50 worked out at 23000 nM.
Take `N=C(N)c1ccc(OCCCCCOc2ccc(C(=N)N)cc2Cl)c(Cl)c1` [RT-43]: in series [1], the EC50 amounted to 180 nM. In series [2], the ΔG0 is -8.58 kcal/mol, the “δ(ΔG0)” value came to 1.59 kcal/mol and the “δ(ΔG^0) PMD” value is 1.58 kcal/mol. For the same molecule, the inhibition constant Ki in series [2] (Ki) was 510 ± 150 nM. Moreover, in series [3], the EC50 was 235 nM.
For `N=C(N)c1ccc(SCCCCCSc2ccc(C(=N)N)cc2)cc1` [RT-48], in series [1], the EC50 turned out to be 24 nM. Further, in series [2], the ΔG0 is -7.77 kcal/mol and the “δ(ΔG^0) PMD” value amounted to 2.39 kcal/mol. In series [2] (Ki), this molecule came in with an inhibitory constant (Ki) of 2010 ± 860 nM. Besides, in series [3], the EC50 was found to be 165 nM.
As for `N=C(N)c1ccc(NCCCCCNc2ccc(C(=N)N)cc2)cc1` [RT-50], the EC50 in series [1] came out at 4.1 nM; in series [3], 72 nM. Also, the ΔG0 in series [2] is -7.1 kcal/mol. For the same molecule, in series [2], the “δ(ΔG^0) PMD” value was 3.08 kcal/mol. The molecule also yielded an inhibition constant Ki in series [2] (Ki) of 6270 ± 1300 nM.
Consider `N=C(N)c1ccc(OCCCCCOc2ccc(C(=N)N)cn2)nc1` [RT-52], for which, in series [1], the EC50 came out at 8.8 nM. In series [2], the ΔG0 was -6.88 kcal/mol and the “δ(ΔG^0) PMD” value was determined as 3.27 kcal/mol. Moreover, the Ki in series [2] (Ki) turned out to be 8840 ± 880 nM. Moreover, the EC50 in series [3] was found to be 51 nM.
As to `Cc1ccc(C(=O)Nc2ccc(S(=O)(=O)O)c3cc(S(=O)(=O)O)cc(S(=O)(=O)O)c23)cc1NC(=O)c1cccc(NC(=O)Nc2cccc(C(=O)Nc3cc(C(=O)Nc4ccc(S(=O)(=O)O)c5cc(S(=O)(=O)O)cc(S(=O)(=O)O)c45)ccc3C)c2)c1` [Suramin], the “suramin uptake rate, CRK+tet” value is 0.000346 pmol/1E7 cells/s-1 in series [6] (AVERAGE of the experiments); 0.0003125 pmol/1E7 cells/s-1 and 0.0002775 pmol/1E7 cells/s-1 and 0.0003952 pmol/1E7 cells/s-1 and 0.0004343 pmol/1E7 cells/s-1 in series [6] (single experiments). Further, the “suramin uptake rate, CRK-tet” value is 0.000523 pmol/1E7 cells/s-1 in series [6] (AVERAGE of the experiments); 0.0004923 pmol/1E7 cells/s-1 and 0.0003572 pmol/1E7 cells/s-1 and 0.000635 pmol/1E7 cells/s-1 and 0.0006387 pmol/1E7 cells/s-1 in series [6] (single experiments). The “Reduction of [3H]-suramin uptake” value in series [6] (twelve hours after CRK12 RNAi induction) was determined as 33%.
Turning to `CO[C@@H]1C[C@@H](C[C@H]2CC[C@H](C)[C@H]([C@@H](C)C(=O)O)O2)O[C@]2(O[C@](C)([C@H]3CC[C@@](C)([C@@H]4O[C@@H]([C@H]5O[C@@](O)(CO)[C@H](C)C[C@@H]5C)C[C@@H]4C)O3)C[C@H]2C)[C@@H]1C` [nigericin], in series [4], the PMF is -46.9. In addition, the “Effect of ionophore on pentamidine uptake” value in series [5] was “strongly inhibited”. The same molecule returned a 3H-penta in series [5] (CCCP 20, gramicidin 10, Nigericin 20, NEM 1000, Control = 100) of 44.45. Further, the pentamidine uptake in series [5] (Nigericin 1, AVG) was 109.4 percentage of the uninhibited control; in series [5] (Nigericin 1, single repeats), 108 percentage of the uninhibited control and 110.7 percentage of the uninhibited control; in series [5] (Nigericin 5, AVG) it was 76.8 percentage of the uninhibited control; in series [5] (Nigericin 10, AVG), 61.2 percentage of the uninhibited control; in series [5] (Nigericin 10, single repeats), 63.9 percentage of the uninhibited control and 61 percentage of the uninhibited control and 53.2 percentage of the uninhibited control and 66.7 percentage of the uninhibited control; in series [5] (Nigericin 20, AVG), 44.5 percentage of the uninhibited control. The pentamidine uptake in series [5] (Nigericin 20, single repeats) was 41.7 percentage of the uninhibited control and 44.5 percentage of the uninhibited control and 42.9 percentage of the uninhibited control and 48.7 percentage of the uninhibited control.
`CC(C)[C@@H]1NC(=O)[C@H](C)OC(=O)[C@@H](C(C)C)NC(=O)[C@@H](C(C)C)OC(=O)[C@H](C(C)C)NC(=O)[C@H](C)OC(=O)[C@@H](C(C)C)NC(=O)[C@@H](C(C)C)OC(=O)[C@H](C(C)C)NC(=O)[C@H](C)OC(=O)[C@@H](C(C)C)NC(=O)[C@@H](C(C)C)OC1=O` [valinomycin]: the pentamidine uptake in series [5] (valinomycin 0.3, AVG) was 106.4 percentage of the uninhibited control; in series [5] (valinomycin 0.3, single repeats) it was 108.9 percentage of the uninhibited control and 103.8 percentage of the uninhibited control; in series [5] (valinomycin 1, AVG), 91.0 percentage of the uninhibited control; in series [5] (valinomycin 1, single repeats), 97.7 percentage of the uninhibited control and 84.2 percentage of the uninhibited control; in series [5] (valinomycin 10, AVG), 80.1 percentage of the uninhibited control; in series [5] (valinomycin 10, single repeats) it was 86.7 percentage of the uninhibited control and 73.5 percentage of the uninhibited control.
